This note sets out measurements from PubChem BioAssay AID1053172 (The Scripps Research Institute Molecular Screening Center, 2014).

Activity calls are given as the source filed them. How the calls were made is not given here. Some results are limits rather than exact numbers.

The test deals with HIV-1 integrase / human LEDGF/p75 complex. The test is described as follows: inhibitors of HIV-1 IN-LEDGF/p75 DNA integration, dose response, biochemical, TR-FRET (AID 1053172).

As usually defined, the IC50 is the concentration that gives 50% inhibition. As for `Oc1ccc(/C=N/NC(=S)Nc2cccnc2)cc1O`, the IC50 is 4.5 µM.
Take `CN(C)C1C(=O)C(C(N)=O)=C(O)C2(O)C(=O)C3=C(O)c4c(O)cccc4C(C)(O)C3C(O)C12` (centres undefined): the IC50 result was “inactive”.
Under `N/C(=N\N=C/c1ccc(-c2ccc(O)c(C(=O)O)c2)o1)N[N+](=O)[O-]` stands 1.55 µM; under `O=C(COC(=O)c1c2c(nc3ccccc13)/C(=C\c1ccco1)CC2)NC1CCCC1`, 6.44 µM; under `O=C1OC(c2cccs2)=N/C1=C/c1ccc(-c2cccc(C(=O)O)c2)o1`, “inactive”.
Under `Cc1ccc(N=C2NC(=O)/C(=C/C=C/c3ccco3)S2)cc1C` stands 7.35 µM; under `Cc1cc(C(=O)N/N=C/c2ccc(O)c([N+](=O)[O-])c2)c(C)n1-c1ccc(F)cc1`, “inactive”.
Next, `Oc1ccc(NCc2ccccc2OCc2ccccc2)cc1`: > 36.5 µM (inactive); `COc1cc(-c2cc(=O)c3c(O)c(OC)c(OC)c(O)c3o2)ccc1O`: 4.96 µM.
As for `COC(=O)C1CCN(C(=O)c2cc(-c3ccco3)nc3ccccc23)CC1`, the IC50 was 5.92 µM.
Next, `COc1ccc(N=C2NC(=O)/C(=C\C=C\c3ccco3)S2)cc1`: 8.07 µM.
Under `O=C1C=C(O)c2[nH]c(=O)ccc2C1=O` stands 3.8 µM; under `COC1=CC(=O)C(C2CC(=O)c3c(O)cc(O)cc3O2)=CC1=O` (centres undefined), > 36.5 µM (inactive); under `COCCN(CCOC)Cc1c(O)ccc2c1O/C(=C\c1ccc(C)o1)C2=O`, > 36.5 µM (inactive).
Under `C[n+]1c2cc(N)ccc2cc2ccc(N)cc21` stands 5.49 µM; under `Cc1c(CC(=O)N2CCN(C(=O)C3COc4ccccc4O3)CC2)c(=O)oc2c(O)c(O)ccc12` (centres undefined), 0.408 µM; under `O=C(NCCCO)c1ccc2nc(-c3ccco3)c(-c3ccco3)nc2c1`, 2.85 µM.
For the compound `O=C1c2ccccc2C(=O)N1/N=C/c1ccc(O)c(O)c1`, the IC50 was 3 µM.
For `O=C(N/N=C/c1ccc(F)cc1)c1cc(-c2ccco2)nc2ccccc12`, the half-inhibitory concentration (IC50) was 8.59 µM.
Consider `COCCN(CCOC)Cc1c(O)ccc2c1O/C(=C\c1ccco1)C2=O`, for which the IC50 was > 12.2 µM (inactive).
Regarding `CC1=NN(c2cccc(C(=O)O)c2)C(=O)/C1=C\C=C\c1ccco1`, the IC50 is 0.734 µM.
Under `O=C(O)Cc1c[nH]c2cccc(O)c12` stands 7.41 µM.
Next, `Oc1ccc(C=Nc2ccc(N3CCOCC3)cc2)c(O)c1`: “inactive”; `O=C1C=C(Nc2ccccc2O)c2ccccc2C1=O`: 7.39 µM; `O=C(O)C1Nc2c(O)cccc2C2C=CCC12` (centres undefined): 0.754 µM.
For the compound `Cc1nc2ccccc2c(=O)n1/N=C/c1ccc(O)c(O)c1O`, the half-maximal inhibitory concentration (IC50) was 2.45 µM.
Turning to `NC(=O)CC1Nc2cccc3cccc(c23)NC1=O` (centres undefined), the IC50 is > 36.5 µM (inactive).
Consider `C=C(C)C(=O)Nc1cccc(C2=NOC3(C2)C[C@@H](C(N)=O)N(C(=O)/C=C/C=C/C)C3)c1` (some centres undefined), for which the concentration for half-maximal inhibition (IC50) is 3.25 µM.
Turning to `COc1cc(/C=C/C=C2/CC/C(=C/C=C/c3ccc(O)c(OC)c3)C2=O)ccc1O`, the IC50 was 4.93 µM.
